In series [1] the test system is TPO and TTF-1 mRNA in BRAF^V600E PTC-derived cells. The series can be described thus: qPCR of iodide metabolism genes (TPO, TTF-1 mRNA) in PTC-derived cells.
For series [2], the system named is Xloc13 lincRNA expression in BRAF^V600E PTC-derived cells. The series can be described thus: qPCR of Xloc13 expression in BRAF^V600E PTC-derived cells. As to conditions: metastatic or non-metastatic PTC-derived cells; vs. vehicle. It counts as cell-based, human. (Real-time PCR tracks product formation cycle by cycle.)
Series [3] deals with human invasive heterozygous BRAF^WT/V600E PTC-derived cell line. The series can be described thus: Invasion of human invasive BRAF^WT/V600E PTC-derived cell line. The class given is cell-based.
Series [4] has as its system BRAF^WT/V600E PTC-derived cell line xenograft tumors. The series can be described thus: Xenograft mouse model of human invasive heterozygous BRAF^WT/V600E PTC-derived cell line. Background: In xenograft studies the graft and the host belong to different species.
The test system of series [5] is BRAF^V600E PTC-derived cells. As to the kind of experiment: 123-Iodide uptake in vitro. The settings on record: Xloc13 lincRNA; synergizes with vemurafenib.
[6] abbreviates: Xloc13+ BRAF^WT/V600E PTC-derived cells.

For the molecule `CCCS(=O)(=O)Nc1ccc(F)c(C(=O)c2c[nH]c3ncc(-c4ccc(Cl)cc4)cc23)c1F` [vemurafenib, reference compound], the “TPO and TTF-1 mRNA levels rise” value in series [1] (cells engineered to over-express Xloc13 (Xloc13+) during treatment with vemurafenib) was roughly 3.5 fold-changes. In addition, in series [2], the “rescue of Xloc13 expression (qPCR)” value was 4-6 fold-changes.

For “Xloc13 lincRNA: thyroid-specific long intergenic non-coding RNA (2.257 kb, SEQ ID NO: 1), over-expressed from a vector in PTC-derived cells”, in series [1] (Xloc13 lincRNA over-expression in PTC-derived cell lines), the “TPO mRNA expression levels” value is reported as “up-regulates TPO mRNA expression levels”. The invasion entry in series [3] (Xloc13 lincRNA overexpression alone) is “inhibited invasion”. In addition, the invasion entry in series [3] (Xloc13 lincRNA overexpression plus vemurafenib) is “inhibits invasion”. Further, in series [4] (setting [6]), the EZH2 protein levels result is on record as “transcriptionally down-regulated EZH2 protein levels” and the “H3K27me3 (EZH2 effector)” value is “reducing its effector H3K27me3”. Also, in series [4] (Xloc13+ cells under vemurafenib therapy vs. backbone vector control), the decrease in growth is recorded as greater than 3 fold. Moreover, the “123-Iodide uptake in xenograft tumors (nano-SPECT imaging)” value in series [4] (Xloc13+ tumors of vemurafenib-treated mice vs. vehicle-treated backbone vector controls) is given as “significantly crucial for the recovery”. Besides, in series [5], the “123-iodide uptake/organification in vitro” value is recorded as “crucial for the rescue”.

The record behind these values is patent US20220349015A1, “DIAGNOSIS AND TREATMENT OF THYROID CANCER” (Beth Israel Deaconess Medical Center, Inc., priority 2019, published 2022).
